From patent US12428415B2, “Matriptase 2 inhibitors and uses thereof” (Disc Medicine, Inc., priority 2018, dated 2025)

biological target: T1, Human Recombinant Matriptase 2 (Homo sapiens, UniProt Q8IU80); assay: Matriptase 2 fluorescence based inhibition assay, Method A (100 mM TRIS pH 9, 1 mg/mL BSA); format: biochemical; conditions: at 1 uM; Assay Used = A; read-out: Mar-2 % inhibition at 1 uM
T1 construct: purchased Enzo Life Sciences (an in-house preparation was also used) ALX-201-752-1
T1 sequence (Q8IU80 1-811): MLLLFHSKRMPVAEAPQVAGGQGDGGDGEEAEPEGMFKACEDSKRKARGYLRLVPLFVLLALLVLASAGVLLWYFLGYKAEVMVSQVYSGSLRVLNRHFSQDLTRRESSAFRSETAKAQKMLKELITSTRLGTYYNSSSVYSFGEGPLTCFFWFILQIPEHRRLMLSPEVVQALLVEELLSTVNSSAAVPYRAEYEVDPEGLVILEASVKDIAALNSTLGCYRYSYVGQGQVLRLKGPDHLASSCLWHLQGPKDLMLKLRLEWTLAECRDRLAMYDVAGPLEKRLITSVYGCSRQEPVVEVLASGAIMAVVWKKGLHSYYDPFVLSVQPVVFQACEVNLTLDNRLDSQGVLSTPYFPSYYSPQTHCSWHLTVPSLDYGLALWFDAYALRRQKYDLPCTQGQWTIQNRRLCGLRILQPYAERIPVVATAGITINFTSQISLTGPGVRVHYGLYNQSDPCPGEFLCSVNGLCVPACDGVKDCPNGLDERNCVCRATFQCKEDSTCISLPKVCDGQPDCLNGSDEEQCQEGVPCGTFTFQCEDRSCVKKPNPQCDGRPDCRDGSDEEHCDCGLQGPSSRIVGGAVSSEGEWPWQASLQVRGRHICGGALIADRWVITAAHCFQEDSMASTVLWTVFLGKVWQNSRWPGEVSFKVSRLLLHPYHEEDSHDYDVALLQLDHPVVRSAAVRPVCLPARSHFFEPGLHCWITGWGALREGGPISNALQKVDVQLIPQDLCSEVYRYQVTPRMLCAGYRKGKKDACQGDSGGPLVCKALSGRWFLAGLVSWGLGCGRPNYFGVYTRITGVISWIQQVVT
How it was run: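 At 25° C in 100 mM TRIS pH 9 with 1 mg/mL BSA and 1% DMSO, compounds were preincubated 30 min with 7 nM commercial or 15 nM in-house protein before adding 100 μM Boc-Gln-Ala-Arg-7-amido-4-methyl coumarin. Fluorescence at 360/480 nm after 60 min; single points at 1 and 10 μM, IC50 by variable-slope nonlinear regression.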

Row | inhibition at 1 µM [%] | SMILES
1 | 0 to 25 | N=C(N)c1ccc2cc(C(=O)NC3CC=CCC3)n(Cc3ccc(NC(=O)CCN)cc3)c2c1 (centres unmarked) [Compound I-264, 1-(4-(3-Aminopropanamido)benzyl)-6-carbamimidoyl-N-(cyclohex-3-en-1-yl)-1H-indole-2-carboxamide]
2 | 0 to 25 | N=C(N)c1ccc2cc(C(=O)Nc3nc4ccccc4s3)n(Cc3ccc(C(N)=O)cc3)c2c1 [Compound I-265]
3 | 0 to 25 | Cc1csc(NC(=O)c2cc3ccc(C(=N)N)cc3n2Cc2ccc(C(N)=O)cc2)n1 [Compound I-266]
4 | 0 to 25 | NC(=O)c1ccc(Cn2c(C(=O)Nc3cccc(N4CCCC4)c3)cc3ccc(/C(N)=N/O)cc32)cc1 [Compound I-267, 1-(4-Carbamoylbenzyl)-6-(N′-hydroxycarbamimidoyl)-N-(3-(pyrrolidin-1-yl)phenyl)-1H-indole-2-carboxamide]
5 | 0 to 25 | NC(=O)c1ccc(Cn2c(C(=O)Nc3ccc(N4CCCC4)cc3)cc3ccc(/C(N)=N/O)cc32)cc1 [Compound I-268, 1-(4-Carbamoylbenzyl)-6-(N′-hydroxycarbamimidoyl)-N-(4-(pyrrolidin-1-yl)phenyl)-1H-indole-2-carboxamide]
6 | 0 to 25 | NC(=O)c1ccc(Cn2c(C(=O)Nc3cc(N4CCCC4)ccn3)cc3ccc(/C(N)=N/O)cc32)cc1 [Compound I-269, 1-(4-Carbamoylbenzyl)-6-(N′-hydroxycarbamimidoyl)-N-(4-(pyrrolidin-1-yl)pyridin-2-yl)-1H-indole-2-carboxamide]
7 | 0 to 25 | CC(C)CCn1c(C(=O)N2CCC(F)CC2)cc2ccc(C(=N)N)cc21 [Compound I-270, 2-(4-Fluoropiperidine-1-carbonyl)-1-isopentyl-1H-indole-6-carboximidamide]
8 | 0 to 25 | CC(C)CCn1c(C(=O)N2CCC(F)(F)CC2)cc2ccc(C(=N)N)cc21 [Compound I-271]
9 | 0 to 25 | CC(C)CCn1c(C(=O)N2CC[C@H](F)C2)cc2ccc(C(=N)N)cc21 [Compound I-272]
10 | 0 to 25 | CC(C)CCn1c(C(=O)N2CCC(F)(F)C2)cc2ccc(C(=N)N)cc21 [Compound I-273]
11 | 25 to 50 | N=C(N)c1ccc2cc(C(=O)N3CCC(CCN)CC3)n(CCCN)c2c1 [Compound I-274]
12 | 25 to 50 | N=C(N)c1ccc2cc(C(=O)N3CCC(CCN)CC3)n(CCC(N)=O)c2c1 [Compound I-276]
13 | 0 to 25 | N=C(N)c1ccc2cc(C(=O)N3CCC(CCN)CC3)n(Cc3ccc(C(F)(F)F)cc3)c2c1 [Compound I-278]
14 | 0 to 25 | N=C(N)c1ccc2cc(C(=O)N3CC[C@H](F)C3)n(Cc3ccc(C(F)(F)F)cc3)c2c1 [Compound I-279]
15 | 0 to 25 | N=C(N)c1ccc2cc(C(=O)N3CCC(CCO)CC3)n(Cc3ccc(C(F)(F)F)cc3)c2c1 [Compound I-280]
16 | 0 to 25 | CCOC(=O)CCCC1CCN(C(=O)c2cc3ccc(C(=N)N)cc3n2Cc2ccc(C(F)(F)F)cc2)CC1 [Compound I-281]
17 | 0 to 25 | N=C(N)c1ccc2cc(C(=O)N3CCC(F)CC3)n(Cc3ccc(C(F)(F)F)cc3)c2c1 [Compound I-282]
18 | 0 to 25 | N=C(N)c1ccc2cc(C(=O)N3CCC(F)(F)CC3)n(Cc3ccc(C(F)(F)F)cc3)c2c1 [Compound I-283]
19 | 0 to 25 | N=C(N)c1ccc2cc(C(=O)N3CCC(F)(F)C3)n(Cc3ccc(C(F)(F)F)cc3)c2c1 [Compound I-285]
20 | 0 to 25 | N=C(N)c1ccc2cc(C(=O)N3CCC(CCNC(=O)c4ccccn4)CC3)n(Cc3ccc(C(F)(F)F)cc3)c2c1 [Compound I-286]
21 | 0 to 25 | N=C(N)c1ccc2cc(C(=O)N3CCC(CCOCCO)CC3)n(Cc3ccc(C(F)(F)F)cc3)c2c1 [Compound I-287]
22 | 0 to 25 | N=C(N)c1ccc2cc(C(=O)N3CCC(CCN)CC3)n(Cc3ccc(OC(F)(F)F)cc3)c2c1 [Compound I-288]
23 | 0 to 25 | N=C(N)c1ccc2cc(C(=O)N3CCC(F)CC3)n(Cc3ccc(OC(F)(F)F)cc3)c2c1 [Compound I-289]
